From US4818816A, “Process for the organic synthesis of oligosaccharides and derivatives thereof” (Choay, S.A., priority 1981, dated 1989)

Tests used:
Xa factor [1] = test: anti-Xa activity, Yin-Wessler test; assay type: biochemical
Xa factor [2] = test: anti-Xa test using a chromogen substrate (method of Teien A.M. and Lie modified); assay type: biochemical; conditions: Xa factor (Sigma) 8 u/ml, substrate 1.33 mM, diluted human plasma, 37° C.
Procedure: In a test using a chromogen substrate, this activity has even been 4000 anti-Xa units/mg (method of Teien A.M. and Lie modified; Thrombosis Research No. 10, 1977, 388-410).
This test consists of using the Xa factor marketed by the Sigma company in solution at 8 u/ml in physiological serum, the concentration of the substrate being 1.33 mM.
To carry out this test it is possible to proceed as follows.
10 μl of solution to be determined and 300 μl of human plasma diluted with Tris maleate buffer 0.02M, […] are mixed.
It is left to incubate one minute at 37° C.
100 μl of the above-said Xa factor (8 u/ml) are added and one minute later, the solution obtained is injected into the substrate.

blood coagulation = test: APTT test, overall anticoagulant activity
AT III = test: affinity for AT III; assay type: binding

| Structure (SMILES) | anti-Xa activity (Yin-Wessler) (Xa factor [1]) [u/mg] | Yin-Wessler titres compared with those of heparin (Xa factor [1]; compared with heparin) | selective inhibition activity of the activated X factor or Xa factor of the blood (Xa factor [1]; test not specified) | anti-Xa activity in a test using a chromogen substrate (Xa factor [2]) [anti-Xa units/mg] | overall anticoagulant activity (APTT test) (blood coagulation) [u/mg] | affinity for AT III (AT III) |
| --- | --- | --- | --- | --- | --- | --- |
| O=C(O)[C@H]1O[C@@H](O[C@H]2[C@H](OS(=O)(=O)O)[C@@H](NS(=O)(=O)O)C(O)O[C@@H]2COS(=O)(=O)O)[C@H](O)[C@@H](O)[C@@H]1O[C@H]1O[C@H](COS(=O)(=O)O)[C@@H](O)[C@H](O)[C@H]1NS(=O)(=O)O (stereo partly shown) | ~7 |  |  |  |  |  |
| O=C(O)[C@H]1O[C@@H](O[C@H]2[C@H](OS(=O)(=O)O)[C@@H](NS(=O)(=O)O)[C@@H](O[C@H]3[C@H](O)[C@@H](OS(=O)(=O)O)[C@H](O[C@H]4[C@H](O)[C@@H](NS(=O)(=O)O)C(O)O[C@@H]4COS(=O)(=O)O)O[C@H]3C(=O)O)O[C@@H]2COS(=O)(=O)O)[C@H](O)[C@@H](O)[C@@H]1O[C@H]1O[C@H](COS(=O)(=O)O)[C@@H](O)[C@H](O)[C@H]1NS(=O)(=O)O (stereo partly shown) [pentasaccharide 50] | ≥ 2000 | distinctly higher | very high selective inhibition activity | 4000 | 4 | high affinity |
